Measured values as given in US20260070924A1, “INDAZOLE MACROCYCLES AND THEIR USE” (BLOSSOMHILL THERAPEUTICS, INC., priority 2022, published 2026).

Legend:
Assay type in all cases: cell-based
[1] = system: MV-4-11 cells; assay: MV-4-11 cell proliferation assay (CellTiter-Glo 2.0); details: MV-4-11, 384-well, 11-dose dilution series; read-out: IC50, inhibition of MV-4-11 cell proliferation
Method: MV-4-11 cell line was purchased from ATCC and maintained in RPMI medium supplemented with 10% fetal bovine serum and 100 U/mL of penicillin/streptomycin. One thousand MV-4-11 cells/50 μl per well were seeded in white 384-well plate, followed by treatment with indicated compounds in a 11-dose dilution series. Cell proliferation was measured using CellTiter-Glo 2.0 luciferase-based ATP detection assay (Promega, Madison, WI) following the manufacturer's protocol. Plates were then read on a TECAN Sparks multimode microplate reader. Data was analyzed using GraphPad Prism 9 (GraphPad Software, San Diego, CA) to obtain IC50 values.

[2] = system: BaF3 FLT3-ITD/D835V; assay: Cell proliferation panel (CellTiter-Glo 2.0, 5 days); details: murine pro-B cell line expressing FLT3-ITD/D835V
Source text: (§1) Ba/F3 cells were purchased from DSMZ. The FLT3-ITD gene was synthesized at GenScript and cloned into pCDH-CMV-MCS-EF1-Puro plasmid (System Biosciences, Inc). FLT3-ITD/D835V and FLT3-ITD/F691L cDNA clones were made at GenScript by PCR and confirmed by sequence. Ba/F3 FLT3-ITD, FLT3-ITD/D835V and FLT3-ITD/F691L cell lines were generated by infecting Ba/F3 cells with lentivirus containing FLT3-ITD, FLT3-ITD/D835V or FLT3-ITD/F691L genes. Stable cell lines were selected by puromycin treatment, followed by IL-3 withdrawal.
(§2) Cell proliferation assay was carried out in a panel of 108 cell lines. 1000 (attached cells) or 3000 (suspension cells) cells/100 μl per well were seeded in 96 well black plate with a clear bottom (Corning #3904). Compounds were added using Tecan D300e Digital Dispenser in 1:3 titration for 9 doses. Plates were incubated for 5 days at 37° C. and 5% CO2. Cell proliferation was measured using CellTiter-Glo 2.0 luciferase-based ATP detection assay (Promega, Madison, WI) at 50 μl per well following the manufacturer's protocol. Plates were then read on a TECAN Sparks multimode microplate reader. Data was analyzed using GraphPad Prism 9 (GraphPad Software, San Diego, CA) to obtain IC50 values. IC50 values were determined using Prism software (GraphPad Software, San Diego, CA).

[3] = system: BaF3 FLT3-ITD/F691L; assay: as above; details: murine pro-B cell line expressing FLT3-ITD/F691L
Source text: as §1, §2

[4] = system: BaF3 FLT3-ITD; assay: as above; details: murine pro-B cell line expressing FLT3-ITD
Source text: as §1, §2

[5] = system: BaF3; assay: as above; details: murine IL-3 dependent pro-B cell line, with 1 ng/mL mouse IL-3
Source text: as §1, §2

[6] = target: phospho-FLT3 (Y589/Y591) (Homo sapiens, UniProt P36888, INS600FREYEYD); assay: Inhibition of kinase phosphorylation by Western Blot in MOLM-13; details: MOLM-13 cells, 4 hour-incubation; read-out: pFLT3 MOLM-13 IC50
Chain of phospho-FLT3 (Y589/Y591) (P36888 with tags, fused parts or gaps INS600FREYEYD limits assumed): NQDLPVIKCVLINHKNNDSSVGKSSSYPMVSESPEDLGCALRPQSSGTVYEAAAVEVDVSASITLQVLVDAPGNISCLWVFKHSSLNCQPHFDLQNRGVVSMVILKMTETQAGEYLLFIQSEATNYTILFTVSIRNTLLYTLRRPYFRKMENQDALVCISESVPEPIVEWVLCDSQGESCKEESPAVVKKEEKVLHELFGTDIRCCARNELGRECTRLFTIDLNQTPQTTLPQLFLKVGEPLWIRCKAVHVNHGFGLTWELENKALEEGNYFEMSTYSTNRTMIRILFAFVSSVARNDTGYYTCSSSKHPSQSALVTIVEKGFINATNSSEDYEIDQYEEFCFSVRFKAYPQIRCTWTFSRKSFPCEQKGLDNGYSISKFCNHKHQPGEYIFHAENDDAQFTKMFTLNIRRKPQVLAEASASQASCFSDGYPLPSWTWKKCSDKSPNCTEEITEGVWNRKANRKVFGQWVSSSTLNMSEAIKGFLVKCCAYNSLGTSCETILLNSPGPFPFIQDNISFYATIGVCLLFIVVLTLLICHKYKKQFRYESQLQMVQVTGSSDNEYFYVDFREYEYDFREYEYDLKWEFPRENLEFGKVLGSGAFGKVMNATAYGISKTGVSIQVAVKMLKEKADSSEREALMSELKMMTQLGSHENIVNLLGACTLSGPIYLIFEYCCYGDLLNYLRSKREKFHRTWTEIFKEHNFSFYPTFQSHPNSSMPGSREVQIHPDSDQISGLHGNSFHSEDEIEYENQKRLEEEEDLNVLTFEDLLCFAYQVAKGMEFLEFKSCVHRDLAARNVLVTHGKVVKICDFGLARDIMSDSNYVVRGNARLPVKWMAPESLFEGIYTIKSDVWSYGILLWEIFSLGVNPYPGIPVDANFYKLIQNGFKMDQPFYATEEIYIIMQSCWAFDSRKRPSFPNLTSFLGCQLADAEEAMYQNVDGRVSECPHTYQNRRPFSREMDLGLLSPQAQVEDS

CCc1nn(C)c2c1/C=C/c1n[nH]c3ccc(cc13)-c1cnn(C)c1OCCN(C)C2=O [Ex. 6, (17E)-16-ethyl-8,12,14-trimethyl-2,11,12,14-tetrahydro-8H-3,5-ethenotripyrazolo[3,4-f:3′,4′-j:4″,3″-n][1,4]oxazacyclopentadecin-13(10H)-one]
IC50 [1]: 300 pM | IC50 [2]: 1300 pM | IC50 [3]: 22900 pM | IC50 [4]: 550 pM | IC50 [5]: 513000 pM | IC50 [6]: 320 pM
